{"source": "patent US12616698B2", "about": "“Methods for reducing liver fat and for treating fatty liver disorders” (Corcept Therapeutics Incorporated, priority 2021, dated 2026)", "key": {"[1]": {"test_system": "patients presumed to have NASH", "assay": "Phase 2a study: liver enzymes (ALT, AST), bilirubin, Hy's Law (eDISH plot)", "format": "in vivo, human", "from_the_text": "(§1) A Phase 2a, randomized, double-blind, placebo-controlled study (ClinicalTrials.gov Identifier: NCT03823703) was begun to assess the efficacy of two dose levels of miricorilant versus placebo in reducing liver fat in patients who were presumed to have non-alcoholic steatohepatitis (NASH), that presumption based on blood tests and noninvasive measures. Written informed consent was obtained before initiating any study-mandated procedures. The full study was planned to enroll approximately 120 patients, randomized 1:1:1 to receive daily 900 mg miricorilant:600 mg miricorilant: matching placebo.\nOther endpoints monitoring and assessment for safety for all study participants. Safety endpoints included the incidence of TEAEs, AEs, and SAEs; changes from Baseline in clinical laboratory tests (hematology and chemistry panels); changes from Baseline in physical examinations and vital sign measurements; changes from Baseline in ECG parameters.\nLiver enzyme levels were measured in the patients.\nBilirubin and liver enzyme levels were measured in the patients at baseline. […] Bilirubin and ALT levels that combined are placed in the upper right quadrant of the graph, labelled “Hy's Law Quadrant”, indicate that the patient is at high risk of severe hepatocellular injury. The cholestasis quadrant is the location on the graph where bilirubin levels are greater than twice the ULN for bilirubin. The “Temple's Corollary” quadrant is the location on the graph where peak ALT levels are greater than 3 times the ULN for ALT, but bilirubin levels are less than twice the ULN for bilirubin."}, "Male C57 mice": {"test_system": "Male C57 mice", "assay": "High-fat diet mice: liver triglycerides and plasma AST", "format": "in vivo, mouse", "conditions": "60 mg/kg once a day oral gavage", "method": "Male C57 mice (n=24) were given a diet containing […] (a high-fat, “fast food” diet) for 3 weeks. Miricorilant (60 mg/kg) was administered once a day via oral gavage. Plasma aspartate aminotransferase (AST) was measured on days 3, 7, 12, and 18 and 6 mice were sacrificed each week at weeks 1, 2, and 3 for the miricorilant groups and at week 3 for the control (high-fat diet, no miricorilant) group for assessment of liver triglycerides."}, "[2]": {"test_system": "patients presumed to have NASH", "assay": "Phase 2a study: liver volume and liver size by MRI", "format": "in vivo, human", "conditions": "for Percent Change from Baseline in Liver: liver volume", "from_the_text": "as §1\nPatients were randomized in a 1:1:1 ratio to 600 mg miricorilant, 900 mg miricorilant, or placebo. Study drug was administered once daily, orally with 8 oz (240 mL) of water, along with food. Patients were instructed to take a total of 6 tablets at approximately the same time each day. Those in the 600 miricorilant group took 4 miricorilant tablets and 2 placebo tablets. Those in the 900 miricorilant group took 6 miricorilant tablets. Those in the placebo group took 6 placebo tablets. For the week 6 visit, patients were instructed to not take their daily study drug prior to the visit, but to bring their study drug to the site with them so that the study drug can be administered at the site.\nMRI images showing the liver of a patient before (left-hand images) and after receiving daily 600 mg miricorilant (right-hand images) are presented in FIGS. 3A, 3B, and 3C."}, "[3]": {"assay": "Example 6 study: pharmacokinetics", "conditions": "human, in vivo, oral; one patient (FIG. 13)"}, "[4]": {"test_system": "patients with presumed NASH", "assay": "Example 6 study: transaminases and safety laboratory values", "format": "in vivo, human", "method": "This study was a double-blind, multi-center, placebo-controlled, randomized 3-arm phase 2a study (NCT03823703) conducted to assess the safety and efficacy of miricorilant in reducing liver fat content (LFC) in patients with presumed NASH. Adult patients (18-75 years) with presumed NASH were randomized 1:1:1 to miricorilant 600 mg daily, miricorilant 900 mg daily, or placebo for 12 weeks. […] Abbreviations used in this Example and in the Figures include: ALP, alkaline phosphatase; ALT, alanine aminotransferase; AST, aspartate aminotransferase; ELF, enhanced liver fibrosis; LFC, liver fat content; NASH, non-alcoholic steatohepatitis; ULN, upper limit of normal; AUC, area under the concentration-time curve; Cmax, maximum concentration; EOT, end of treatment; GGT, gamma-glutamyltransferase; INR, international normalized ratio; MRI-PDFF, magnetic resonance imaging-proton density fat fraction; pt, patient; SD, standard deviation; ULN, upper limit of normal; Wk, week.\nKey inclusion criteria included that the patients be adults between 18-75 years old; be presumed to suffer from NASH with fibrosis; have LFC as measured by MRI-PDFF≥8%; have levels of AST<5×ULN and ALT<5×ULN; and have eGFR>60 mL/min/1.73 m^2. Primary endpoints included relative change in LFC from baseline by MRI-PDFF. Secondary endpoints included change from baseline in AST, ALT, GGT, and change from baseline in ELF score.\nPatients were divided into different cohorts and received different regimens of miricorilant. The cohorts included patients receiving 30 mg mircorilant once per day; patients receiving 50 mg mircorilant once per day; patients receiving 100 mg mircorilant once per day; patients receiving 150 mg mircorilant once per day; patients receiving 100 mg mircorilant on Mondays, Wednesdays, and Fridays; patients receiving 100 mg mircorilant on Mondays and Fridays; and patients receiving 200 mg mircorilant once per week. Patients receiving 100 mg mircorilant on Mondays and Fridays were termed “Cohort 6”.\nFIG. 13 provides a plot of MRI-PDFF (top line beginning at week 0) and liver enzyme alanine aminotransferase (ALT; bottom line beginning at week 0) for a patient who received miricorilant treatment that included a cessation of miricorilant treatment from week 7 to week 10. […] GGT was elevated at baseline (peak 88 U/L at Wk 10); at other weeks it was below baseline. Eosinophils (%) baseline 7.3, decreased to 2.2 at Wk 2 and increased Wk 3 (peak 4.3), decreased Wk 8 (2.0) and stable until EOT."}}, "note": "Entries after “also recorded” stand apart in the source; their conditions may differ.", "data": [{"compound": "O=c1[nH]c(=O)c(Cc2cccc(C(F)(F)F)c2)c([C@H]2CC[C@H](c3ccccc3)CC2)[nH]1", "note": "[miricorilant, (E)-6-(4-Phenylcyclohexyl)-5-(3-trifluoromethylbenzyl)-1H-pyrimidine-2,4-dione]", "values": [{"measurement": "Change in ALP or bilirubin levels", "setting": "[1]; 600 or 900 mg daily", "value": "No significant change"}, {"measurement": "Hy's Law criteria (total bilirubin >2x ULN and ALT or AST >3x ULN)", "setting": "[1]; 600 or 900 mg daily, eDISH plot FIG. 5", "value": "No patient in this study satisfied the criteria for Hy's Law; also recorded: no patient met Hy's Law criteria"}, {"measurement": "Transaminase elevations upon discontinuation of miricorilant", "setting": "[1]; all patients", "value": "resolved rapidly"}, {"measurement": "AST Max", "setting": "[1]; patient 208-4020, 900 mg, 30 days on treatment, baseline 45", "value": 772, "unit": "U/L"}, {"measurement": "ALT Max", "setting": "[1]; patient 208-4020, 900 mg, 30 days on treatment, baseline 69", "value": 1378, "unit": "U/L"}, {"measurement": "AST Max", "setting": "[1]; patient 211-4002, 900 mg, 31 days on treatment, baseline 32", "value": 113, "unit": "U/L"}, {"measurement": "ALT Max", "setting": "[1]; patient 211-4002, 900 mg, 31 days on treatment, baseline 50", "value": 386, "unit": "U/L"}, {"measurement": "AST Max", "setting": "[1]; patient 214-4007, 900 mg, 44 days on treatment, baseline 30", "value": 376, "unit": "U/L"}, {"measurement": "ALT Max", "setting": "[1]; patient 214-4007, 900 mg, 44 days on treatment, baseline 38", "value": 848, "unit": "U/L"}, {"measurement": "AST Max", "setting": "[1]; patient 233-4018, 600 mg, 34 days on treatment, baseline 26", "value": 391, "unit": "U/L"}, {"measurement": "ALT Max", "setting": "[1]; patient 233-4018, 600 mg, 34 days on treatment, baseline 41", "value": 955, "unit": "U/L"}, {"measurement": "Effect on liver enzymes ALT and AST", "setting": "[1]; patients with presumed NASH, 600 or 900 mg daily for 30-44 days", "value": "isolated rise; also recorded: increase"}, {"measurement": "Liver triglycerides", "setting": "Male C57 mice; high-fat diet for 3 weeks, starting at week 1, vs high-fat diet control (FIG. 6A)", "value": "rapid reduction"}, {"measurement": "Plasma AST", "setting": "Male C57 mice; high-fat diet, no change in dose (FIG. 6B)", "value": "transient increase at 2 weeks but normalized by 3 weeks"}, {"measurement": "Follow-Up Liver Volume", "setting": "[2]; Patient 1 (responder), 900 mg, baseline 1606 mL", "value": 1303, "unit": "mL"}, {"measurement": "Follow-Up Liver Volume", "setting": "[2]; Patient 2 (responder), 900 mg, baseline 1675 mL", "value": 1314, "unit": "mL"}, {"measurement": "Follow-Up Liver Volume", "setting": "[2]; Patient 3 (responder), 900 mg, baseline 3857 mL", "value": 3113, "unit": "mL"}, {"measurement": "Follow-Up Liver Volume", "setting": "[2]; Patient 4 (responder), 600 mg, baseline 1899 mL", "value": 1505, "unit": "mL"}, {"measurement": "Percent Change from Baseline in Liver", "setting": "[2]; Patient 1 (responder), 900 mg", "value": "−18.9", "unit": "%"}, {"measurement": "Percent Change from Baseline in Liver", "setting": "[2]; Patient 2 (responder), 900 mg", "value": "−21.6", "unit": "%"}, {"measurement": "Percent Change from Baseline in Liver", "setting": "[2]; Patient 3 (responder), 900 mg", "value": "−19.3", "unit": "%"}, {"measurement": "Percent Change from Baseline in Liver", "setting": "[2]; Patient 4 (responder), 600 mg", "value": "−20.7", "unit": "%"}, {"measurement": "AUC", "setting": "[3]", "value": 5900, "unit": "ng·h/mL"}, {"measurement": "Cmax", "setting": "[3]", "value": 404, "unit": "ng/mL"}, {"measurement": "Hepatic transaminase levels", "setting": "[4]; 100 mg twice weekly, over 12 weeks", "value": "without an associated rise"}, {"measurement": "Safety and tolerability", "setting": "[4]; including 100 mg twice weekly", "value": "safe, well tolerated"}, {"measurement": "Eosinophils (%)", "setting": "[4]; one patient (FIG. 13), Wk 2, baseline 7.3", "value": 2.2, "unit": "%"}, {"measurement": "Eosinophils (%) peak", "setting": "[4]; one patient (FIG. 13), Wk 3", "value": 4.3, "unit": "%"}, {"measurement": "Eosinophils (%)", "setting": "[4]; one patient (FIG. 13), Wk 8, stable until EOT", "value": 2.0, "unit": "%"}, {"measurement": "GGT peak", "setting": "[4]; one patient (FIG. 13), Wk 10, elevated at baseline", "value": 88, "unit": "U/L"}, {"measurement": "Total bilirubin, direct bilirubin, ALP, INR", "setting": "[4]; one patient, treatment ceased from week 7 to week 10 (FIG. 13)", "value": "within normal limits"}, {"measurement": "Rise in ALT>3×ULN, intermittent compared to daily dosing", "setting": "[4]; responders receiving intermittent miricorilant, all cohorts", "value": "less likely to have a rise in ALT>3×ULN"}, {"measurement": "Transaminase levels", "setting": "[4]; treatment non-responders (FIG. 10)", "value": "did not experience a rise"}]}]}
